PubChem BioAssay (NCI)
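96-well plates; 48 h exposure; 5 concentrations. Endpoints by linear interpolation between flanking doses. Not reached: highest tested concentration assigned. GI50 marks 50% less growth. TGI denotes the concentration required for complete inhibition of growth.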

Experiments:
Assay in all cases: NCI anticancer screen, dose series, 48 h
DU-145 prostate = test system: DU-145 prostate
PC-3 prostate = test system: PC-3 prostate
HOP-62 NSCLC = test system: HOP-62 NSCLC
SW-620 colon = test system: SW-620 colon
HS 578T breast = test system: HS 578T breast
TK-10 renal = test system: TK-10 renal
MOLT-4 leukemia = test system: MOLT-4 leukemia
RXF 393 renal = test system: RXF 393 renal
OVCAR-5 ovarian = test system: OVCAR-5 ovarian
SK-MEL-28 melanoma = test system: SK-MEL-28 melanoma
SF-295 CNS = test system: SF-295 CNS
A498 renal = test system: A498 renal
RPMI-8226 leukemia = test system: RPMI-8226 leukemia
CCRF-CEM leukemia = test system: CCRF-CEM leukemia
SK-OV-3 ovarian = test system: SK-OV-3 ovarian
UACC-257 melanoma = test system: UACC-257 melanoma
HT29 colon = test system: HT29 colon
SK-MEL-2 melanoma = test system: SK-MEL-2 melanoma
SF-539 CNS = test system: SF-539 CNS
MALME-3M melanoma = test system: MALME-3M melanoma
SN12C renal = test system: SN12C renal
HCT-116 colon = test system: HCT-116 colon
786-0 renal = test system: 786-0 renal
A549 NSCLC = test system: A549 NSCLC
NCI-H23 lung = test system: NCI-H23 lung
OVCAR-8 ovarian = test system: OVCAR-8 ovarian
UACC-62 melanoma = test system: UACC-62 melanoma
U251 CNS = test system: U251 CNS
OVCAR-3 ovarian = test system: OVCAR-3 ovarian
SNB-75 CNS = test system: SNB-75 CNS
NCI/ADR-RES ovarian = test system: NCI/ADR-RES ovarian
IGROV1 ovarian = test system: IGROV1 ovarian
ACHN renal = test system: ACHN renal
HCT-15 colon = test system: HCT-15 colon
LOX IMVI melanoma = test system: LOX IMVI melanoma
HCC-2998 colon = test system: HCC-2998 colon
OVCAR-4 ovarian = test system: OVCAR-4 ovarian
KM12 colon = test system: KM12 colon
MDA-MB-231 breast = test system: MDA-MB-231 breast
SNB-19 CNS = test system: SNB-19 CNS
SK-MEL-5 melanoma = test system: SK-MEL-5 melanoma
NCI-H522 lung = test system: NCI-H522 lung
NCI-H460 lung = test system: NCI-H460 lung
SR leukemia = test system: SR leukemia
NCI-H226 lung = test system: NCI-H226 lung
M14 melanoma = test system: M14 melanoma
MCF7 breast = test system: MCF7 breast
HOP-92 NSCLC = test system: HOP-92 NSCLC
K-562 leukemia = test system: K-562 leukemia
UO-31 renal = test system: UO-31 renal
T-47D breast = test system: T-47D breast
HL-60(TB) leukemia = test system: HL-60(TB) leukemia
SF-268 CNS = test system: SF-268 CNS
BT-549 breast = test system: BT-549 breast
EKVX NSCLC = test system: EKVX NSCLC
COLO 205 colon = test system: COLO 205 colon
CAKI-1 renal = test system: CAKI-1 renal
MDA-MB-435 = test system: MDA-MB-435

## N#Cc1c(N)nc(N)nc1N[C@H](c1nc2c(F)ccc(Cl)c2c(=O)n1-c1cccnc1)C1CC1
DU-145 prostate
  GI50: 11 µM
  TGI: > 100 µM
PC-3 prostate
  GI50: 2.3 µM
  TGI: 29.3 µM
HOP-62 NSCLC
  GI50: 3.62 µM
  TGI: > 100 µM
SW-620 colon
  GI50: 11.1 µM
  TGI: > 100 µM
HS 578T breast
  GI50: 2.53 µM
  TGI: 57.7 µM
TK-10 renal
  GI50: 1.92 µM
  TGI: 15.6 µM
MOLT-4 leukemia
  GI50: 3.33 µM
  TGI: 28.8 µM
RXF 393 renal
  GI50: 0.32 µM
  TGI: 3.46 µM
OVCAR-5 ovarian
  GI50: 2.72 µM
  TGI: 45.7 µM
SK-MEL-28 melanoma
  GI50: 7.23 µM
  TGI: > 100 µM
SF-295 CNS
  GI50: 1.18 µM
  TGI: 13.2 µM
A498 renal
  GI50: 0.249 µM
  TGI: 1.55 µM
RPMI-8226 leukemia
  GI50: 19 µM
  TGI: 46.4 µM
CCRF-CEM leukemia
  GI50: 7.35 µM
  TGI: 95.1 µM
SK-OV-3 ovarian
  GI50: 2.41 µM
  TGI: 11.4 µM
UACC-257 melanoma
  GI50: 8.18 µM
  TGI: > 100 µM
HT29 colon
  GI50: 4.53 µM
  TGI: 25.8 µM
SK-MEL-2 melanoma
  GI50: 23.3 µM
  TGI: > 100 µM
SF-539 CNS
  GI50: 3.83 µM
  TGI: 21 µM
MALME-3M melanoma
  GI50: 10.9 µM
  TGI: > 100 µM
SN12C renal
  GI50: 10.8 µM
  TGI: > 100 µM
HCT-116 colon
  GI50: 11.6 µM
  TGI: 27.3 µM
786-0 renal
  GI50: 0.363 µM
  TGI: 14.5 µM
A549 NSCLC
  GI50: 6.22 µM
  TGI: 21.2 µM
NCI-H23 lung
  GI50: 21.8 µM
  TGI: > 100 µM
OVCAR-8 ovarian
  GI50: 15.9 µM
  TGI: 44.3 µM
UACC-62 melanoma
  GI50: 1.6 µM
  TGI: > 100 µM
U251 CNS
  GI50: 14.7 µM
  TGI: 69.2 µM
OVCAR-3 ovarian
  GI50: 1.47 µM
  TGI: 16.3 µM
SNB-75 CNS
  GI50: 0.171 µM
  TGI: 6.9 µM
NCI/ADR-RES ovarian
  GI50: 28.5 µM
  TGI: > 100 µM
IGROV1 ovarian
  GI50: 1.22 µM
  TGI: 5.31 µM
ACHN renal
  GI50: 3.31 µM
  TGI: > 100 µM
HCT-15 colon
  GI50: 14.9 µM
  TGI: 56.7 µM
LOX IMVI melanoma
  GI50: 5.51 µM
  TGI: 20.1 µM
HCC-2998 colon
  GI50: 12.7 µM
  TGI: 28.4 µM
OVCAR-4 ovarian
  GI50: 19.4 µM
  TGI: 87.1 µM
KM12 colon
  GI50: 14.4 µM
  TGI: 34.5 µM
MDA-MB-231 breast
  GI50: 11.8 µM
  TGI: 36.3 µM
SNB-19 CNS
  GI50: 13 µM
  TGI: 28.6 µM
SK-MEL-5 melanoma
  GI50: 8.33 µM
  TGI: 21.9 µM
NCI-H522 lung
  GI50: 34.2 µM
  TGI: > 100 µM
NCI-H460 lung
  GI50: 4.95 µM
  TGI: > 100 µM
SR leukemia
  GI50: 13.4 µM
  TGI: 52.5 µM
NCI-H226 lung
  GI50: 15.5 µM
  TGI: > 100 µM
M14 melanoma
  GI50: 13.6 µM
  TGI: 41.8 µM
MCF7 breast
  GI50: 2.04 µM
  TGI: > 100 µM
HOP-92 NSCLC
  GI50: 0.549 µM
  TGI: 7.59 µM
K-562 leukemia
  GI50: 31.8 µM
  TGI: > 100 µM
UO-31 renal
  GI50: 2.34 µM
  TGI: 21.1 µM
T-47D breast
  GI50: 1.19 µM
  TGI: 7.96 µM
HL-60(TB) leukemia
  GI50: 2.28 µM
  TGI: 82.8 µM
SF-268 CNS
  GI50: 12.3 µM
  TGI: > 100 µM
BT-549 breast
  GI50: 0.761 µM
  TGI: 17.3 µM
EKVX NSCLC
  GI50: 1.88 µM
  TGI: 37.2 µM
COLO 205 colon
  GI50: 8.74 µM
  TGI: 25.8 µM
CAKI-1 renal
  GI50: 1.69 µM
  TGI: 26.9 µM
MDA-MB-435
  GI50: 13 µM
  TGI: 34.4 µM
